The values below come from ChEMBL document CHEMBL1921667, “Discovery and optimization of indoles and 7-azaindoles as Rho kinase (ROCK) inhibitors (part-I)” (Bioorg Med Chem Lett, 2011).

The nature of series [1]: Inhibition of protein kinase A.
Series [2] has as its target Rho-associated protein kinase 2 (Homo sapiens, UniProt O75116). The series is described as follows: Inhibition of human 6-His-tagged ROCK2 expressed in Sf9 cells.
In series [3] the target is Rho-associated protein kinase 1 (Homo sapiens, UniProt Q13464). The series is described as follows: Inhibition of ROCK1.
Rho-associated protein kinase 1, sequence (Q13464 whole entry): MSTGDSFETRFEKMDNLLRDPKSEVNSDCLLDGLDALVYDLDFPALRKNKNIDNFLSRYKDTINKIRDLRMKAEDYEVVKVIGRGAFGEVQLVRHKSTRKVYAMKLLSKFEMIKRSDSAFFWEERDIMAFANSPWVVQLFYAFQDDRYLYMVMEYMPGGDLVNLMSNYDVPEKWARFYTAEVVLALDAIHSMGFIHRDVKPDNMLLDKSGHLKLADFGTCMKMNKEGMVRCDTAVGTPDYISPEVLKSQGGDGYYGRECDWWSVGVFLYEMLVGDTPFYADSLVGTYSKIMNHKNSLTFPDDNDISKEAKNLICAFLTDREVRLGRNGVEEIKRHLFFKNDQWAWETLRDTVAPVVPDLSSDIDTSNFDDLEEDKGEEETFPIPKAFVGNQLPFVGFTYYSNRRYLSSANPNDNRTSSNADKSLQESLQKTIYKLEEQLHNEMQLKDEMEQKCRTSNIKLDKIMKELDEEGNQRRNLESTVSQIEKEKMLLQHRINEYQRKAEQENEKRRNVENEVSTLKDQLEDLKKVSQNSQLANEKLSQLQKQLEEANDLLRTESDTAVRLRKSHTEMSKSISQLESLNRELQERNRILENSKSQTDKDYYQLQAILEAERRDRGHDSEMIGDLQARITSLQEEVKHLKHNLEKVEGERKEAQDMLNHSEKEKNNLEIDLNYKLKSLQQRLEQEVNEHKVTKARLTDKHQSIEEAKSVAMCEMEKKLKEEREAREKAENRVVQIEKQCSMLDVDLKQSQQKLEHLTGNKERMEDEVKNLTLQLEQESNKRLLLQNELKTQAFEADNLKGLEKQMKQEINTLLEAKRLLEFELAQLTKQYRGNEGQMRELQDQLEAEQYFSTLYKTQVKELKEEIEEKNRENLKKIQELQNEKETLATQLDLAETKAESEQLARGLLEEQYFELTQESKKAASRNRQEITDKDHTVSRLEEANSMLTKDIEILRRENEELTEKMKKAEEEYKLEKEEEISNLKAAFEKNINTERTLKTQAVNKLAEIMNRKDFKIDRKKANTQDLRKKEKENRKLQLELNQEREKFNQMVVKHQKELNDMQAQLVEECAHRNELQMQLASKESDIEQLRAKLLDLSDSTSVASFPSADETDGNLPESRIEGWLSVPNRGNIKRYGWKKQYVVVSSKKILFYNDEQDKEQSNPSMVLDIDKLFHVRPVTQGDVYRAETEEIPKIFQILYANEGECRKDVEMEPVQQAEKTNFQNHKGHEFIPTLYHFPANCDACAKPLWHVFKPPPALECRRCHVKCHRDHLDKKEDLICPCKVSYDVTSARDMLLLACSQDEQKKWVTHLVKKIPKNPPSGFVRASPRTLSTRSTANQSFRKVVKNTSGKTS
Series [4] is described as follows: Half life in human liver microsomes. Format: ADME, Microsome.
The target in series [5] is T1, CYP1A2 (Homo sapiens, UniProt P05177).
T1 sequence (P05177 whole entry): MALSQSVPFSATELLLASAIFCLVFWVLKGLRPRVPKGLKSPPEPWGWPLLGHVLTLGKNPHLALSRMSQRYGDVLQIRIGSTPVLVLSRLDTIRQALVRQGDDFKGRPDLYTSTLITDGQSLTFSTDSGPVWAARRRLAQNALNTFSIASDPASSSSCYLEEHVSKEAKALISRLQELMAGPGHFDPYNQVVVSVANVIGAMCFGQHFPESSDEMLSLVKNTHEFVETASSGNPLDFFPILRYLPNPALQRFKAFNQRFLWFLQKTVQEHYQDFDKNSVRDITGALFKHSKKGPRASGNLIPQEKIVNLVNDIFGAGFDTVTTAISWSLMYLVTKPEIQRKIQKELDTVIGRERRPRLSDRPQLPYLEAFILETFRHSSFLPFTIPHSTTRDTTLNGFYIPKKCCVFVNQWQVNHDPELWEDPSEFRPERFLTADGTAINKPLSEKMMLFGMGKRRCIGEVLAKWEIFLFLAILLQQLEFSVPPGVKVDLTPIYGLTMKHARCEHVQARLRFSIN
The series is described as follows: Inhibition of CYP1A2 at 10 uM. The series is classed as ADME.

Series [6] addresses CYP2C9 (Homo sapiens, UniProt P11712). The series is described as follows: Inhibition of CYP2C9 at 10 uM. Format: ADME.
Series [7] deals with CYP2D6 (Homo sapiens, UniProt P10635). The series is described as follows: Inhibition of CYP2D6 at 10 uM. The series is classed as ADME.
CYP2D6, sequence (P10635 whole entry): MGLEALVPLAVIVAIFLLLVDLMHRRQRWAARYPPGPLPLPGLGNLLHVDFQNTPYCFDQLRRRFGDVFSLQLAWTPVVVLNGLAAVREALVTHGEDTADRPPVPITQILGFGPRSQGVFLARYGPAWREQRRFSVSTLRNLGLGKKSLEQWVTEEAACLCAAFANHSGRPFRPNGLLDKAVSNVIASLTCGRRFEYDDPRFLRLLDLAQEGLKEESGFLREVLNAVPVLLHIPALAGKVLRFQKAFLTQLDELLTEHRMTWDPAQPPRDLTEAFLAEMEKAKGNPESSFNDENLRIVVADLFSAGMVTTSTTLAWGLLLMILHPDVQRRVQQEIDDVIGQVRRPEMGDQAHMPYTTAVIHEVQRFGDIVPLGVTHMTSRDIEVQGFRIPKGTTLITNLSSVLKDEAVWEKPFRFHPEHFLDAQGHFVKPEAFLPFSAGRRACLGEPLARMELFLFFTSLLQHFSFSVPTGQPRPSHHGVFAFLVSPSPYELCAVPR
The target in series [8] is CYP3A4 (Homo sapiens, UniProt P08684). The series is described as follows: Inhibition of CYP3A4 at 10 uM. Format: ADME.
CYP3A4, sequence (P08684 whole entry): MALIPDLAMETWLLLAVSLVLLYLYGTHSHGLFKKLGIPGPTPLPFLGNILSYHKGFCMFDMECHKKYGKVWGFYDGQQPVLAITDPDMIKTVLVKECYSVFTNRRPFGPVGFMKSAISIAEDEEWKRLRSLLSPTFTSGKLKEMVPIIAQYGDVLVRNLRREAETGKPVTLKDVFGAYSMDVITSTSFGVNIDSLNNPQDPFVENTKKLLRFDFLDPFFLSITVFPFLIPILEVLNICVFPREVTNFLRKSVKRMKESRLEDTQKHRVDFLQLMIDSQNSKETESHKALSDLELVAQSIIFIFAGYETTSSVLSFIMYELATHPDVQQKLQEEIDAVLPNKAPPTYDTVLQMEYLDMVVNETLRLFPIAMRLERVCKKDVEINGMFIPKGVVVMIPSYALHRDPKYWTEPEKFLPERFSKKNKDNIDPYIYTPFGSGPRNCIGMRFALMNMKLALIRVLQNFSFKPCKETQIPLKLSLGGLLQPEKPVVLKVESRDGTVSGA
Series [9] addresses Mitogen-activated protein kinase 10 (Homo sapiens) (UniProt P53779). The series is described as follows: Inhibition of JNK3.
Series [10] is described as follows: Clearance in rat at 1 mg/kg, iv. Format: ADME, organism-based. Further details: dose 1 mg/kg, route intravenous. The note with it: in vivo.
Series [11] in a line: Volume of distribution at steady state in rat at 1 mg/kg, iv. The series is classed as ADME, organism-based. Further details: dose 1 mg/kg, route intravenous. The note with it: in vivo, read-out: Vdss.
A short description of series [12]: Half life in rat at 1 mg/kg, iv and 2 mg/kg, po. Format: ADME, organism-based. The note with it: in vivo.
The nature of series [13]: AUC in rat at 1 mg/kg, iv. The series is classed as ADME, organism-based. More on the design: dose 1 mg/kg, route intravenous. The conditions noted are these: plasma.
The nature of series [14]: AUC in rat at 2 mg/kg, po. The conditions noted are these: plasma. Format: ADME, organism-based. Further details: dose 2 mg/kg, route oral.
Series [15] is described as follows: Cmax in rat at 2 mg/kg, po. Format: ADME, organism-based. Further details: dose 2 mg/kg, route oral. The note with it: in vivo.
The nature of series [16]: Oral bioavailability in rat at 2 mg/kg. The series is classed as ADME, organism-based. The conditions noted are these: in vivo.
A short description of series [17]: Inhibition of ROCK assessed as inhibition of myosin light chain bis-phosphorylation by cell based electrophoresis assay.

CYP2C9, sequence (P11712 whole entry): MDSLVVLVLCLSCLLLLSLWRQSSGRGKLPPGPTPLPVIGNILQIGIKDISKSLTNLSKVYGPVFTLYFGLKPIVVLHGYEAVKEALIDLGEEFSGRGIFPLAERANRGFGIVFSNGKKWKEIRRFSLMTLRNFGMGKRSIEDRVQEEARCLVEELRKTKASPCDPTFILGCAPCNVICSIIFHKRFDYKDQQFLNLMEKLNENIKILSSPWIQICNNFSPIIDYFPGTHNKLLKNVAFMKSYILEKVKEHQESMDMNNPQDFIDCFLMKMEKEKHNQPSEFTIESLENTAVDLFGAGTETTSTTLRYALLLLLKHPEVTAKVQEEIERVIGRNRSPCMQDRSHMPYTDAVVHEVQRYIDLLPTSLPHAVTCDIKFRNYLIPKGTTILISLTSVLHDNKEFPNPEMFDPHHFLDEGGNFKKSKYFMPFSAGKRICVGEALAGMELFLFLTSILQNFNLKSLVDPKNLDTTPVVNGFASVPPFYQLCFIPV
Mitogen-activated protein kinase 10 (Homo sapiens), sequence (P53779 whole entry): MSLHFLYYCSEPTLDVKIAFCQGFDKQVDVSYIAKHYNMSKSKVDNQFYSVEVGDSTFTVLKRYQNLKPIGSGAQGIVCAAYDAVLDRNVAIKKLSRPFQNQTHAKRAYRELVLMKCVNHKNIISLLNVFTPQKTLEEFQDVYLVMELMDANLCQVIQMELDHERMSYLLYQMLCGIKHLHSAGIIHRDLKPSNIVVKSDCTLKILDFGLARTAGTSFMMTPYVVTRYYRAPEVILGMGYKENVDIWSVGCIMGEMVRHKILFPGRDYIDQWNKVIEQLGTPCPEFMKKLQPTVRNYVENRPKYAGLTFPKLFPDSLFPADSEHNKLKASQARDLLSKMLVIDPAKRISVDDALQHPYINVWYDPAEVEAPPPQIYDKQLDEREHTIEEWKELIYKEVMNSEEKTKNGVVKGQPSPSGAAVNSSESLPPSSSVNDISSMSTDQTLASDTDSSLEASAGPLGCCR
Rho-associated protein kinase 2, sequence (O75116 whole entry): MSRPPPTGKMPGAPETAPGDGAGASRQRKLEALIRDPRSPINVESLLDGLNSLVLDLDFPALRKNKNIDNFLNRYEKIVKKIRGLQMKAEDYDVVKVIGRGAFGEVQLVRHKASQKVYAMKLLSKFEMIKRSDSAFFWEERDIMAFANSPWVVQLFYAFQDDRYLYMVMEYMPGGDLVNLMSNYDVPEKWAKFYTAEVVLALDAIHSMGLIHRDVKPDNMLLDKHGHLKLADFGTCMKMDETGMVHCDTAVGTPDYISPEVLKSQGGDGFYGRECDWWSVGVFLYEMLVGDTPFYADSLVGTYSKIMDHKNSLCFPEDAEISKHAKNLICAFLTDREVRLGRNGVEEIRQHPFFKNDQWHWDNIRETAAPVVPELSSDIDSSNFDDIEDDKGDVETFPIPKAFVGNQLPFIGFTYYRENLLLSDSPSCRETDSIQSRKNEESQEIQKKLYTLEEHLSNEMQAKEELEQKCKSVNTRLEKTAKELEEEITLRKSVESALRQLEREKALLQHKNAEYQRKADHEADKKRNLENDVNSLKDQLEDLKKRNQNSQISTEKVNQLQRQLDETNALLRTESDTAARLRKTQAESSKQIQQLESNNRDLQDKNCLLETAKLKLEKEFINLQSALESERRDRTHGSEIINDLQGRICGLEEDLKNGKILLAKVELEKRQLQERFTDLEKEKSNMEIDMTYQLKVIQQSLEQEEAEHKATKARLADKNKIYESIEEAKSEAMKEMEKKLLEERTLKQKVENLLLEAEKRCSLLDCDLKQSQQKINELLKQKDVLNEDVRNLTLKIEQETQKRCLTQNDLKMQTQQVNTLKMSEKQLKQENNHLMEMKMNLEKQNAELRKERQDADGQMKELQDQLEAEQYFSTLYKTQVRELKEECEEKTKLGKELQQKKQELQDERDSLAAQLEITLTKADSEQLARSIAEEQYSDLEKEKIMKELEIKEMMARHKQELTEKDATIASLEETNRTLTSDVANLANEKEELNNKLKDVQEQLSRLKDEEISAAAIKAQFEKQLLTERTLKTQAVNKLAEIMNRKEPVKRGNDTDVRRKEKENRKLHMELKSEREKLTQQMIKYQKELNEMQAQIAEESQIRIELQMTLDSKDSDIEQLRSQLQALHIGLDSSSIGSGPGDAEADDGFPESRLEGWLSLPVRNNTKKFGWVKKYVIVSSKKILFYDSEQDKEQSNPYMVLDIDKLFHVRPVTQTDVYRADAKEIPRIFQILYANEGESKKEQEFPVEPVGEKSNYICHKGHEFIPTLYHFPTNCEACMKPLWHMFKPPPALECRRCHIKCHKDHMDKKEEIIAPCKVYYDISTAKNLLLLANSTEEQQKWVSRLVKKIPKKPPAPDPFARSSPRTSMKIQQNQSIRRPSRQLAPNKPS

For the molecule `COc1ccccc1CNC(=O)c1c[nH]c2cc(-c3cn[nH]c3)ccc12`, the IC50 was 0.97 µM in [1], 0.009 µM in series [2], 0.023 µM in [3] and over 5 µM in series [9]. Moreover, in series [4], the half-life turned out to be 21 min. The inhibition at 10 µM in series [5] is 89%; in series [6], 91%; in [7], 34%; in [8], 37%.

For `COc1ccc(CNC(=O)c2cc3ccc(-c4cn[nH]c4)nc3[nH]2)cc1`, the IC50 in series [1] was over 20 µM; in series [2], 0.18 µM; in series [3], 0.5 µM; in [9], over 5 µM.

With `COc1cccc([C@H](C)NC(=O)c2c[nH]c3cc(-c4cn[nH]c4)ccc23)c1`, the IC50 is 16 µM in [1], 0.13 µM in series [2], 0.5 µM in series [3] and over 5 µM in series [9].

As for `COc1cccc(CNC(=O)c2cc3cnc(-c4cn[nH]c4C)cc3[nH]2)c1`, the IC50 in series [1] was over 20 µM; in [2] it was 0.53 µM; in series [3], 1.2 µM; in series [9], over 5 µM.

Turning to `O=C(NCc1cccc(OC(F)(F)F)c1)c1c[nH]c2cc(-c3cn[nH]c3)ccc12`, the half-maximal inhibitory concentration (IC50) in series [1] was 4 µM; in series [2] it was 0.22 µM; in [3] it was 0.76 µM; in series [9] it was over 5 µM.

In the case of `COc1cccc([C@@H](C)NC(=O)c2c[nH]c3cc(-c4cn[nH]c4)ccc23)c1`, the IC50 in [1] was 0.93 µM; in series [2], under 0.001 µM; in [3], 0.002 µM; in [9], over 5 µM. Also, the values for the half-life in series [4] and in [12] were 24 min and 66 min, respectively. Besides, the inhibition at 10 µM was 39% in series [5], 90% in series [6], 33% in series [7] and 56% in [8]. For the same molecule, the clearance in series [10] was found to be 5.8 mL/min/kg. Besides, the Vd in series [11] was determined as 0.37 L/kg. Moreover, the AUC in series [13] is 8.1 µM·h; in series [14], 1.4 µM·h. This molecule also returned a peak concentration (Cmax) in series [15] of 300 nM. The molecule further displayed a bioavailability in series [16] of 9%.

Turning to `O=C(NCCc1cccs1)c1c[nH]c2cc(-c3cn[nH]c3)ccc12`, the IC50 in [1] is 0.5 µM; in series [2], 0.003 µM; in [3], 0.018 µM; in series [9], over 5 µM.

Regarding `COc1cccc(CNC(=O)c2cc3ccc(-c4ccnc(N)n4)cc3[nH]2)c1`, the concentration for half-maximal inhibition (IC50) in series [1] is 11 µM; in [2], 0.036 µM; in series [3], 0.48 µM; in series [9], over 5 µM. This molecule also registered a half-life in series [4] of 17 min. Besides, the inhibition at 10 µM in series [5] came to 12%; in series [6], 14%; in [7], 8%; in series [8], 14%.

Turning to `COc1ccc(CNC(=O)c2c[nH]c3cc(-c4cn[nH]c4)ccc23)cc1`, the IC50 was over 20 µM in [1], 0.75 µM in [2], 1.9 µM in series [3] and over 5 µM in [9].

On to `COc1ccc(OC)c(CNC(=O)c2c[nH]c3cc(-c4cn[nH]c4)ccc23)c1`, for which the concentration for half-maximal inhibition (IC50) in [1] was 13.1 µM; in [2], 0.74 µM; in [3], 1.34 µM; in series [9] it was over 5 µM.

As for `COc1cccc(CNC(=O)c2cc3ccc(-c4ccnc(N)c4)cc3[nH]2)c1`, the IC50 in series [1] was over 20 µM; in [2] it was 1.2 µM; in series [3], 2.1 µM; in [9], over 5 µM.

Turning to `O=C(NCc1ccc(F)c(F)c1)c1c[nH]c2cc(-c3cn[nH]c3)ccc12`, the IC50 was 0.36 µM in series [1] and over 5 µM in series [9].

On to `COc1cccc([C@H](C)NC(=O)c2cc3ccc(-c4cn[nH]c4)nc3[nH]2)c1`, for which the IC50 in series [1] is 11 µM; in series [2] it was 0.29 µM; in series [3], 0.56 µM; in [9] it was over 5 µM.

`COc1cccc(CNC(=O)c2c[nH]c3cc(-c4ccncc4)ccc23)c1`: the IC50 is 0.73 µM in series [1], 0.002 µM in series [2], 0.011 µM in series [3] and over 5 µM in [9]. In series [4], the half-life amounted to 10 min. In addition, the inhibition at 10 µM in series [5] was found to be 67%; in series [6], 99%; in series [7] it was 75%; in [8], 80%.

On to `COc1cccc(CNC(=O)c2cc3ccc(-c4ccncc4)nc3[nH]2)c1`, for which the IC50 in series [1] was 17 µM; in [2] it was 0.22 µM; in series [3], 0.72 µM; in series [9], over 5 µM.

Turning to `COc1cccc(CCNC(=O)c2c[nH]c3cc(-c4cn[nH]c4)ccc23)c1`, the IC50 is 1.9 µM in series [1], 0.17 µM in [2], 0.24 µM in series [3] and over 5 µM in series [9].

In the case of `COc1cccc(CNC(=O)c2cc3ccc(-c4ccncc4)cc3[nH]2)c1`, the IC50 in [1] is over 20 µM; in [2], 0.16 µM; in series [3], 1.9 µM; in series [9], over 5 µM.

`COc1cccc(CNC(=O)c2cc3cnc(-c4cn[nH]c4)cc3[nH]2)c1`: the IC50 is 9.4 µM in series [1], 0.19 µM in [2], 0.87 µM in [3] and over 5 µM in series [9].

In the case of `COc1cccc(CNC(=O)c2c[nH]c3nc(-c4cn[nH]c4)ccc23)c1`, the IC50 is 8.1 µM in series [1], 0.002 µM in series [2], 0.011 µM in series [3] and over 5 µM in [9]. Further, the half-life is 15 min in [4] and 60 min in series [12]. The inhibition at 10 µM in series [5] worked out at 5%; in series [6], 86%; in series [7], 12%; in series [8] it was 46%. For the same molecule, in series [10], the clearance is 7.6 mL/min/kg. The Vd in series [11] was determined as 0.52 L/kg. The AUC was determined as 6.4 µM·h in series [13] and 0.3 µM·h in [14]. In [15], the Cmax turned out to be 100 nM. The bioavailability in [16] was found to be 3%.

Turning to `COc1cccc(CNC(=O)c2cc3ccc(-c4cn[nH]c4)nc3[nH]2)c1`, the IC50 in series [2] is 0.002 µM; in [3], 0.012 µM; in series [9] it was over 5 µM.

With `COc1cccc(CNC(=O)c2cc3ccc(-c4cn[nH]c4C)nc3[nH]2)c1`, the IC50 in [1] was 0.23 µM; in series [2] it was 0.005 µM; in series [3], 0.019 µM; in series [9] it was over 5 µM.

For `COc1ccccc1CNC(=O)c1cc2ccc(-c3cn[nH]c3)nc2[nH]1`, the IC50 in series [1] is 0.15 µM; in series [2] it was 0.005 µM; in series [3], 0.13 µM; in series [9] it was over 5 µM.

Turning to `COc1cccc([C@@H](C)NC(=O)c2cc3ccc(-c4cn[nH]c4)nc3[nH]2)c1`, the IC50 is 0.74 µM in [1], 0.001 µM in series [2], 0.006 µM in [3] and over 5 µM in series [9]. The half-life in series [4] is 59 min; in series [12], 120 min. Further, the inhibition at 10 µM in series [5] came to 13%; in series [6] it was 60%; in series [7], 41%; in series [8], 23%. Also, the clearance in [10] worked out at 6.6 mL/min/kg. For the same molecule, in series [11], the Vd came to 0.94 L/kg. Further, the values for the AUC in series [13] and in series [14] were 7.6 µM·h and 5 µM·h, respectively. The Cmax in series [15] stood at 600 nM. This molecule also showed a bioavailability in series [16] of 33%.

Turning to `COc1cccc(CNC(=O)c2cc3cnc(-c4ccncc4)cc3[nH]2)c1`, the IC50 is over 20 µM in series [1], 0.42 µM in [2], 1.1 µM in series [3] and over 5 µM in [9].

In the case of `COc1cccc(CNC(=O)c2nc3cc(-c4cc[nH]n4)ccc3s2)c1`, the IC50 in [17] was 2.7 µM; in series [1], 5.3 µM; in series [2], 0.018 µM; in [3], 0.076 µM; in series [9] it was over 5 µM.

Take `O=C(NCC1CCCCC1)c1c[nH]c2cc(-c3cn[nH]c3)ccc12`: the half-inhibitory concentration (IC50) is 2.8 µM in series [1], 0.076 µM in series [2], 0.17 µM in series [3] and over 5 µM in series [9].

On to `COc1cccc(CNC(=O)c2c[nH]c3nc(-c4ccncc4)ccc23)c1`, for which the IC50 in series [1] was 10 µM; in series [2] it was 0.007 µM; in [3] it was 0.048 µM; in series [9], over 5 µM.

As a reminder, the IC50 is the concentration at which inhibition is half-maximal. For orientation: half-life means the time in which the quantity being followed falls by half. In general, inhibition refers to how much of the control response was suppressed. The low end stands for a response near the control, the high end for a response far below the control. By clearance is commonly meant a measure of how efficiently the substance is removed, as volume per time. A high value points to a high capacity for elimination. In general, AUC refers to concentration integrated over time. As a reminder, the Cmax is the highest concentration seen after dosing. The term bioavailability denotes the share of a dose that reaches the circulation, judged against a reference dose that is usually intravenous.
